# Data published in the SangsterLogP compilation.
row,logP,SMILES
1,3.37,CCN(CCO)c1ccc(/N=N/c2ccc([N+](=O)[O-])cc2)cc1
2,4.56,Clc1ccc(/N=N/c2ccccc2)cc1
3,5.07,O=[N+]([O-])c1ccc(/N=N/c2ccc(Nc3ccccc3)cc2)cc1
4,3.15,Cc1cc(N(CCO)CCO)ccc1/N=N/c1c(Cl)cc([N+](=O)[O-])cc1[N+](=O)[O-]
5,4.69,CCN(CC)c1ccc(/N=N/c2ccc([N+](=O)[O-])cc2)cc1
6,3.11,CCN(CCO)c1ccc(/N=N/c2ccc([N+](=O)[O-])cc2[N+](=O)[O-])cc1
7,3.32,Nc1ccc(Nc2ccc([N+](=O)[O-])cc2[N+](=O)[O-])cc1
8,2.37,Nc1ccc(/N=N/c2ccc([N+](=O)[O-])cc2)cc1
9,2.44,Cc1cc(N(CCO)CCO)ccc1/N=N/c1ccc([N+](=O)[O-])cc1[N+](=O)[O-]
10,3.59,O=[N+]([O-])c1ccc(/N=N/c2ccccc2)cc1
11,4.55,O=[N+]([O-])c1ccc(Nc2ccccc2)c([N+](=O)[O-])c1
12,2.11,O=C1c2ccccc2C(=O)c2c(NCCO)cccc21
13,2.49,O=C1c2ccccc2C(=O)C1c1nc2ccccc2cc1O
14,3.88,O=[N+]([O-])c1ccc(Nc2ccc(O)cc2)c([N+](=O)[O-])c1
15,1.79,O=[N+]([O-])c1ccc(/N=N/c2ccc(N(CCO)CCO)cc2)c([N+](=O)[O-])c1
16,4.08,CCN(CCO)c1ccc(/N=N/c2ccc([N+](=O)[O-])cc2Cl)cc1
17,2.87,CNc1cccc2c1C(=O)c1ccccc1C2=O
18,3.18,Oc1ccc(/N=N/c2ccccc2)cc1
19,3.79,CN(C)c1ccc(/N=N/c2ccc([N+](=O)[O-])cc2)cc1

# Continued, molecule first:
row,SMILES,logP
1,O=C1C(c2[nH]c3ccccc3c2O)=Nc2ccccc21,2.63
2,O=C1c2ccccc2C(=O)c2c1ccc(O)c2O,2.34
3,COc1cc(N)c2c(c1N)C(=O)c1ccccc1C2=O,1.29
4,CN(C)c1ccc(/N=N/c2ccccc2)cc1,4.05
5,CNc1ccc(O)c2c1C(=O)c1c(O)ccc(NC)c1C2=O,1.61
6,O=c1[nH]c2ccccc2c(O)c1/N=N/c1ccccc1,4.2
7,Nc1c(Oc2ccccc2)cc(O)c2c1C(=O)c1ccccc1C2=O,4.68
8,O=C1c2ccc(O)c(O)c2C(=O)c2c(O)ccc(O)c21,2.01
9,O=C1C(c2[nH]c3c(Br)cc(Br)cc3c2O)=Nc2c(Br)cc(Br)cc21,6.66
10,CC(=O)Nc1ccc(/N=N/c2cc(C)ccc2O)cc1,2.85
11,Nc1ccc(O)c2c1C(=O)c1ccccc1C2=O,1.8
12,COc1cc([N+](=O)[O-])ccc1/N=N/c1ccc(N(CCO)CCO)cc1,2.27
13,Cc1cc(N(CCO)CCO)ccc1/N=N/c1ccccc1,2.7
14,CCOc1cc(/N=N/c2c(Br)cc([N+](=O)[O-])cc2[N+](=O)[O-])c(NC(C)=O)cc1N(CCOC(C)=O)CCOC(C)=O,3.56
15,c1ccc2oc(-c3ccc(-c4nc5ccccc5o4)s3)nc2c1,5.97
16,O=C1c2ccccc2C(=O)c2c(O)ccc(O)c21,2.34

row,SMILES,logP
1,OCCN(CCO)c1ccc(/N=N/c2ccccc2)cc1,2.31
2,O=C1c2ccccc2C(=O)c2c(O)c(O)cc(O)c21,1.84
3,CNc1ccc(NCCO)c2c1C(=O)c1ccccc1C2=O,1.94
4,Cc1ccc2c(c1N)C(=O)c1ccccc1C2=O,2.8
5,O=[N+]([O-])c1ccc(/N=N/c2ccc(N(CCO)CCO)cc2Cl)cc1,2.93
6,Cc1cc(N(CCO)CCC#N)ccc1/N=N/c1ccc([N+](=O)[O-])cc1,2.97
7,Cc1cc(N(CCO)CCO)ccc1/N=N/c1ccc([N+](=O)[O-])cc1Cl,3.41
8,Cc1cc(N(CCO)CCO)ccc1/N=N/c1ccc([N+](=O)[O-])cc1,2.7
9,O=C1c2ccccc2C(=O)c2c(NCCO)ccc(NCCO)c21,1.17
10,O=[N+]([O-])c1ccc(/N=N/c2ccc(N(CCO)CCO)cc2)cc1,2.05
11,Nc1ccc(N=Nc2ccccc2)cc1,2.62
12,Cc1cc(N(CCO)CCO)ccc1/N=N/c1c(Cl)cc([N+](=O)[O-])cc1Cl,4.12
13,CN(CCO)c1ccc(/N=N/c2c(Cl)cc([N+](=O)[O-])cc2Cl)cc1,4.34
14,Cc1cc(Cl)cc2c1C(=O)/C(=C1\Sc3cc(Cl)cc(C)c3C1=O)S2,6.02
15,CNc1ccc(NC)c2c1C(=O)c1ccccc1C2=O,2.7
